Data set [1] in a line: Low dose pharmacokinetics. In kind it is in vivo. Particulars: mouse, plasma, iv, 1 mg/kg; C57BI/6 mice, intravenously, 1 mg per kg bodyweight. The method, then: In order to determine the stability of test compounds in plasma, low-dose pharmacokinetic experiments were carried out in C57BI/6 mice. Test compounds were dissolved at 0.1 mg/mL in an appropriate vehicle and dosed intravenously at 1 mg per kg bodyweight in three animals per compound. At various (between 5 and 9) timepoints after injection, up to 24 hours, blood samples were drawn, plasma isolated and test compound concentrations were determined using LC-MS/MS. t½ values were subsequently calculated using Phoenix WinNonlin 6.3 software and averaged over the three mice per test compound.

Data set [2] deals with Raji human Burkitt's lymphoma cells. The data set can be described thus: In vivo Raji xenograft mouse model. Also on record: species or system NSG mice. The conditions noted are these: (1) 100 mg/kg orally once daily in combination with Rituximab 10 mg/kg intravenously Q3D, versus Rituximab alone. The method, then:
Anti tumor effects were determined in a model for Burkitt's lymphoma. NSG mice were intravenuously injected with 1 × 10^6 Raji human Burkitt's lymphoma cells. Four days after tumor cell injection, animals were treated with compound (1) as a single agent and in combination with Rituximab (anti-CD20 antibody). Compound (1) was administered at 100 mg/kg orally, once daily. Rituximab was dosed at 10 mg/kg intravenously every third day (Q3D). Tumor progression was evaluated by monitoring animal health and body weight measurement. […] Animals treated with compound in combination with Rituximab, on average, lived 5.5 days longer than animals treated with Rituximab alone.

The text below walks through data of EP4455142A1, “NOVEL INHIBITOR OF QPCTL AND/OR QC” (Scenic Immunology B.V., priority 2023, dated 2024).

By half-life is commonly meant the time needed for the level to fall by half in the phase considered. Higher therefore signals slow decline.

`O=C1OC[C@H](c2ccc(-c3cnn(C(F)(F)F)c3)cc2F)N1c1ccc2[nH]cnc2c1` [Compound (1)]: in data set [1], the half-life lay in the range of 239 to 275 min. Further, the “lived longer than animals treated with Rituximab alone (on average)” value in data set [2] came out at 5.5 days.
